In US11753445B2, “Therapeutic peptides” (COHBAR, INC., priority 2016, dated 2023):
Ends that are not written are not given here. Peptide text beside a SMILES is read from it. * marks the point of attachment. Biotin = O=C1N[C@H]2[C@H](CS[C@H]2CCCCC(=O)*)N1

Legend:
3T3-L1 Adipocytes [1] = assay: Free fatty acid levels in cultured mouse 3T3-L1 adipocytes, isoproterenol stimulated (Example 17); format: cell-based; conditions: isoproterenol 1 nM
Method: Mouse 3T3-L1 cells were seeded at a density between 1,000-20,000 cells per well on 96-well, 48-well, or 24-well plates in Pre-adipocyte Medium (Zen-Bio, Durham, N.C.) and grown to confluence at 37° C. in a humidified atmosphere of 5% CO2/95% air. Two days after confluence, cells were placed in Adipocyte Differentiation Medium (Zen-Bio, Durham, N.C.) and cultured for three additional days at 37° C. in a humidified atmosphere of 5% CO2/95% air. The culture media was then replaced with Adipocyte Maintenance Medium (Zen-Bio) and the cells were maintained for an additional 9-14 days at 37° C. in a humidified atmosphere of 5% CO2/95% air with partial medium replacement every other day. Following 12-17 days of differentiation, test peptides were added at a final concentration of 25-50 μM and incubated for 18-20 hours in Adipocyte Maintenance Medium at 37° C. in a humidified atmosphere of 5% CO2/95%. After the media incubation, media was removed and exchanged with Assay Buffer (Zen-Bio) containing isoproterenol (1 nM) (added to all samples except untreated controls) and the test peptides. Cells were incubated for a further 3 hours at 37° C. in a humidified atmosphere of 5% CO2/95%. Free fatty acid concentrations in the media were determined using a Free Fatty Acid Assay Kit (Zen-Bio) according to the manufacturer's instructions using a plate reader (540 nm).
Absorbance values were corrected for untreated background and expressed relative to isoproterenol treated cells. Treatment with isoproterenol (1 nM) alone was used as the free fatty acid level stimulatory control. The relative standard deviation of the isoproterenol control was <10%. […] Free fatty acid levels for insulin (100 nM) treatment were <5% of the isoproterenol control value.

3T3-L1 Adipocytes [2] = assay: Free fatty acid levels in cultured mouse 3T3-L1 adipocytes, isoproterenol stimulated (Example 2); format: cell-based; conditions: test peptides 25 μM; isoproterenol 1 nM
How it was run: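 3T3-L1 cells differentiated 12–17 days into adipocytes, then exposed to test peptides at 25 μM final for 18–20 h, then 1 h, then 3 h with isoproterenol (1 nM) at 37 °C. Free fatty acids in the medium measured colorimetrically at 540 nm, corrected for untreated background and expressed relative to isoproterenol-only cells.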

Human Primary Adipocytes = assay: Free fatty acid levels in cultured human primary adipocytes, forskolin stimulated (Example 5); format: cell-based; conditions: test peptides 25 μM; forskolin 1 μM
Method: Human primary adipocytes were seeded at 5,000-100,000 cells per well on 96-well, 48-well, or 24-well plate in Pre-adipocyte Medium (Zen-Bio, Durham, N.C.) and grown to confluence at 37° C. in a humidified atmosphere of 5% CO2/95% air. Two days after confluence, cells were placed in Adipocyte Differentiation Medium (Zen-Bio, Durham, N.C.) and cultured for three additional days at 37° C. in a humidified atmosphere of 5% CO2/95% air. The culture media was then replaced with Adipocyte Maintenance Medium (Zen-Bio) and the cells were maintained for an additional 11-21 days at 37° C. in a humidified atmosphere of 5% CO2/95% air with partial medium replacement every other day. Following 14-24 days of differentiation, test peptides were added at a final concentration of 25 μM and incubated for 18-20 hours in Adipocyte Maintenance Medium at 37° C. in a humidified atmosphere of 5% CO2/95%. After 18-20 hours, the media was exchanged with fresh Adipocyte Maintenance Medium containing test peptides and incubated for 1 h at 37° C. in a humidified atmosphere of 5% CO2/95%. After 1 h media was exchanged with Assay Buffer (Zen-Bio) containing forskolin (1 μM) (added to all samples except untreated controls) and test peptides. Cells were incubated for a further 3 hours at 37° C. in a humidified atmosphere of 5% CO2/95%. Free fatty acid concentrations in the media were determined using a Free Fatty Acid Assay Kit (Zen-Bio) according to the manufacturer's instructions using a plate reader (540 nm). Absorbance values were corrected for untreated background and expressed relative to forskolin treated cells. Treatment with forskolin (1 μM) alone was used as the free fatty acid level stimulatory control. The relative standard deviation of the forskolin control was <20%. […] Free fatty acid levels for insulin (100 nM) treatment were <8% of the forskolin control value.

[3] = Stability in mouse plasma, peptides 100 uM (Example 14); format: in vitro ADME; conditions: mouse plasma 37° C., peptide 100 uM
Method: Peptides (100 uM) were incubated in pooled mouse plasma at 37° C. and samples were removed and immediately analyzed for the concentration of intact peptide by LC/MS/MS over the course of 3 hours. The percent of peptide remaining in plasma at each time point was calculated relative to the initial peak area (Table 12).

[4] = test system: Diet Induced Obese (DIO) mice; assay: Body weight, blood glucose and fat mass in Diet Induced Obese mice, 10 days (Example 6); format: in vivo, Male C57BL/6 mice; conditions: male DIO mice; 10 days twice daily intraperitoneal 15 mg/kg; N = 8; mean
Method: Animals were randomized to treatment groups based on blood glucose levels and body weight. The peptides of the invention were administered to two groups of male DIG mice once or twice daily by subcutaneous or intraperitoneal injection at a dose of 15 mg/kg/dose for 10 days (N=8 animals per treatment group). An additional group of male DIG mice (n=8) received vehicle (water or saline) alone. Body weight, blood glucose levels and food intake were monitored. Body mass distribution (fat vs lean) was determined by quantitative whole body NMR prior to dosing and at the end of dosing.

3T3-L1 Adipocytes [5] = assay: Free fatty acid levels in cultured mouse 3T3-L1 adipocytes, forskolin stimulated (Example 3); format: cell-based; conditions: test peptides 25 μM; forskolin 1 μM
Method: Mouse 3T3-L1 cells were seeded at 1,000-20,000 cells per well on 96-well, 48-well, or 24-well plates in Pre-adipocyte Medium (Zen-Bio, Durham, N.C.) and grown to confluence at 37° C. in a humidified atmosphere of 5% CO2/95% air. Two days after confluence, cells were placed in Adipocyte Differentiation Medium (Zen-Bio, Durham, N.C.) and cultured for three additional days at 37° C. in a humidified atmosphere of 5% CO2/95% air. The culture media was then replaced with Adipocyte Maintenance Medium (Zen-Bio) and the cells were maintained for an additional 9-14 days at 37° C. in a humidified atmosphere of 5% CO2/95% air with partial medium replacement every other day. Following 12-17 days of differentiation, test peptides were added at a final concentration of 25 μM and incubated for 18-20 hours in Adipocyte Maintenance Medium at 37° C. in a humidified atmosphere of 5% CO2/95%. After 18-20 hours, the media was exchanged with fresh Adipocyte Maintenance Medium containing test peptides and incubated for 1 h at 37° C. in a humidified atmosphere of 5% CO2/95%. After 1 h media was exchanged with Assay Buffer (Zen-Bio) containing forskolin (1 μM) (added to all samples except untreated controls) and test peptides. Cells were incubated for a further 3 hours at 37° C. in a humidified atmosphere of 5% CO2/95%. Free fatty acid concentrations in the media were determined using a Free Fatty Acid Assay Kit (Zen-Bio) according to the manufacturer's instructions using a plate reader (540 nm). Absorbance values were corrected for untreated background and expressed relative to forskolin treated cells. Treatment with forskolin (1 μM) alone was used as the free fatty acid level stimulatory control. The relative standard deviation of the forskolin control was <10%. […] Free fatty acid levels for insulin (100 nM) treatment were <9% of the forskolin control value.

| Molecule | Free Fatty Acid Levels in 3T3-L1 Adipocytes Expressed as a Percent of Isoproterenol Control: Percent of Control Value (3T3-L1 Adipocytes [1]; Peptide Concentration 25 μM) | Free Fatty Acid Levels in 3T3-L1 Adipocytes Expressed as a Percent of Isoproterenol Control: Percent of Control Value (3T3-L1 Adipocytes [2]) | Free Fatty Acid Levels in Human Primary Adipocytes Expressed as a Percent of Forskolin Control: Percent of Control Value (Human Primary Adipocytes) | Free Fatty Acid Levels in 3T3-L1 Adipocytes Expressed as a Percent of Forskolin Control: Percent of Control Value (3T3-L1 Adipocytes [5]) | further results |
| --- | --- | --- | --- | --- | --- |
| CC[C@H](C)[C@H](NC(=O)[C@H](Cc1ccc(O)cc1)NC(=O)[C@H](CC(N)=O)NC(=O)[C@H](CCSC)NC(=O)[C@H](CCC(=O)O)NC(=O)[C@H](CCC(N)=O)NC(=O)[C@H](Cc1c[nH]c2ccccc12)NC(=O)[C@@H](N)CCCNC(=N)N)C(=O)N[C@@H](Cc1ccccc1)C(=O)N[C@@H](Cc1ccc(O)cc1)C(=O)N1CCC[C@H]1C(=O)N[C@@H](CCCNC(=N)N)C(=O)N[C@@H](CCCNC(=N)N)C(=O)N[C@H](C)C(=O)O [compound 356] (HELM PEPTIDE1{R.W.Q.E.M.N.Y.I.F.Y.P.R.R.[dA]}$$$$V2.0) | 100.6% | – | – | – | – |
| H-IFYPR-OH [compound 360] | 94.6% | – | – | – | – |
| H-RWQEMGYIFYPRQLR-OH [compound 217] | – | 27.3% | 108% | 40.3% | % Remaining at Each Time Point: 0 min ([3]; 0 min): 100%; remaining at 0.25 h, 100 uM ([3]; pooled mouse plasma, 15 min, read-out: % Remaining at Each Time Point: 15 min): 71%; remaining at 0.5 h, 100 uM ([3]; pooled mouse plasma, 30 min, read-out: % Remaining at Each Time Point: 30 min): 33.2%; remaining at 1 h, 100 uM ([3]; pooled mouse plasma, 60 min, read-out: % Remaining at Each Time Point: 60 min): 53.6%; remaining at 2 h, 100 uM ([3]; pooled mouse plasma, 120 min, read-out: % Remaining at Each Time Point: 120 min): 22.8%; remaining at 3 h, 100 uM ([3]; pooled mouse plasma, 180 min, read-out: % Remaining at Each Time Point: 180 min): 14.1%; Difference from Vehicle Control: Decrease from Baseline in Blood Glucose [4]: -9.75 mg/dL; Difference from Vehicle Control: Decrease from Baseline in Body Weight (%) [4]: −2.54%; Difference from Vehicle Control: Decrease from Baseline in Fat Mass [4]: -0.89 g |
| H-YIFYPR-OH [compound 296] | 85.0% | – | – | – | – |
| H-RWQEMGYIFYPRN-OH [compound 206] | – | 53.8% | 100% | 50.6% | – |
| 358 (Biotin-RWQEMNYIFYPR) [compound 358] | 60.8% | – | – | – | – |
| H-RWQEM-OH [compound 351] | 100.1% | – | – | – | – |
| CC[C@H](C)[C@H](NC(=O)[C@H](Cc1ccc(O)cc1)NC(=O)[C@H](CC(N)=O)NC(=O)[C@H](CCSC)NC(=O)[C@H](CCC(=O)O)NC(=O)[C@H](CCC(N)=O)NC(=O)[C@H](Cc1c[nH]c2ccccc12)NC(=O)[C@@H](N)CCCNC(=N)N)C(=O)N[C@@H](Cc1ccccc1)C(=O)N[C@@H](Cc1ccc(O)cc1)C(=O)N1CCC[C@H]1C(=O)N[C@@H](CCCNC(=N)N)C(=O)N[C@H](C)C(=O)O [compound 355] (HELM PEPTIDE1{R.W.Q.E.M.N.Y.I.F.Y.P.R.[dA]}$$$$V2.0) | 97.8% | – | – | – | – |
| 369 (PEG600-KEMNYIFYPR) [compound 369] | – | – | – | – | Free Fatty Acid Levels in 3T3-L1 Adipocytes Expressed as a Percent of Isoproterenol Control: Percent of Control Value (3T3-L1 Adipocytes [1]; Peptide Concentration 50 μM): 87.5% |
| H-RWQEMGYIFYPRQ-OH [compound 207] | – | 44.6% | 108% | 51.6% | – |
